Key:
Assay type in all cases: in vivo
[1] = system: large crabgrass (Digitaria sanguinalis); assay: Test C; set-up: key: 0 was no effect; 100 was complete control; settings: PREEMERGENCE
[2] = system: ivyleaf morningglory (Ipomoea hederacea); assay: Test C; settings: PREEMERGENCE
[3] = system: wild poinsettia (Euphorbia heterophylla); assay: Test C; set-up: key: 0 was no effect; 100 was complete control; settings: PREEMERGENCE
[4] = system: eastern black nightshade (Solanum ptycanthum); assay: Test C; settings: PREEMERGENCE
[5] = system: arrowleaf sida (Sida rhombifolia); assay: Test C; set-up: key: 0 was no effect; 100 was complete control; settings: PREEMERGENCE
[6] = system: ladysthumb smartweed (Polygonum persicaria); assay: Test C; settings: PREEMERGENCE
[7] = system: Spanishneedles (Bidens bipinnata); assay: Test E pre-/postemergence/post directed
Description: (§1) Seeds, tubers, or plant parts of alexandergrass (Brachiaria plantaginea), annual bluegrass (Poa annua), arrowleaf sida (Sida rhombifolia), barnyardgrass (Echinochloa crus-galli), bermudagrass (Cynodon dactylon), citrus (Citrus sinensis), common chickweed (Stellaria media), common purslane (Portulaca oleracea), common ragweed (Ambrosia elatior), common groundsel (Senecio vulgaris), dallisgrass (Paspalum dilatatum), goosegrass (Eleusine indica), green foxtail (Setaria viridis), guineagrass (Panicum maximum), itchgrass (Rottboellia exaltata), johnson grass (Sorghum halepense), kochia (Kochia scoparia), large crabgrass (Digitaria sanguinalis), leafy spurge (Euphorbia esula), pitted morningglory (Ipomoea lacunosa), purple nutsedge (Cyperus rotundus), quackgrass (Agropyron repens), Russian thistle (Salsola kali), sandbur (Cenchrus echinatus), sourgrass (Trichachne insularis), Spanishneedles (Bidens bipinnata), sugarcane (Saccharum officinarum), surinam grass (Brachiaria decumbens) and tall mallow (Malva sylvestris) were planted into greenhouse pots of flats containing greenhouse planting medium. Plant species were grown grown in separate pots or individual compartments. Preemergence applications were made within one day of planting the seed or plant part. Postemergence applications were applied when the plants were in the two to four leaf stage (three to twenty cm).
(§2) Test chemicals were formulated in a non-phytotoxic solvent mixture which included a surfactant and applied preemergence to the soil surface, postemergence to the plants or as a post directed spray to plants and soil at the base of the target species. Untreated control plants and treated plants were placed in the greenhouse and visually evaluated for injury 13 to 21 days after herbicide application. Plant response ratings, summarized in Table E, are based on a 0 to 100 scale where 0 is no injury and 100 is complete control. A dash (−) response means no test result.

[8] = system: surinam grass (Brachiaria decumbens); assay: Test E pre-/postemergence/post directed
Description: as §1, §2

[9] = system: large crabgrass (Digitaria sanguinalis); assay: Test E pre-/postemergence/post directed; settings: POSTEMERGENCE, Rate 250 g/ha
Description: as §1, §2

[10] = system: common ragweed (Ambrosia elatior); assay: Test E pre-/postemergence/post directed
Description: as §1, §2

[11] = system: bermudagrass (Cynodon dactylon); assay: Test E pre-/postemergence/post directed; settings: POSTEMERGENCE, Rate 250 g/ha
Description: as §1, §2

[12] = system: sandbur (Cenchrus echinatus); assay: Test E pre-/postemergence/post directed
Description: as §1, §2

[13] = system: johnson grass (Sorghum halepense); assay: Test E pre-/postemergence/post directed
Description: as §1, §2

[14] = system: pitted morningglory (Ipomoea lacunosa); assay: Test E pre-/postemergence/post directed
Description: as §1, §2

[15] = system: common groundsel (Senecio vulgaris); assay: Test E pre-/postemergence/post directed
Description: as §1, §2

[16] = system: itchgrass (Rottboellia exaltata); assay: Test E pre-/postemergence/post directed
Description: as §1, §2

[17] = system: alexandergrass (Brachiaria plantaginea); assay: Test E pre-/postemergence/post directed
Description: as §1, §2

[18] = system: lambsquarters (Chenopodium album); assay: Test C; set-up: key: 0 was no effect; 100 was complete control; settings: PREEMERGENCE
[19] = system: velvetleaf (Abutilon theophrasti); assay: Test C; set-up: key: 0 was no effect; 100 was complete control; settings: PREEMERGENCE
[20] = system: purple nutsedge (Cyperus rotundus); assay: Test E pre-/postemergence/post directed; set-up: key: 0 is no injury; 100 is complete control
Description: as §1, §2

Cc1cnc(-c2ccc(C(F)(F)F)cc2)nc1Cc1cccc(C(F)(F)F)c1 [Example 1, 5-methyl-2-[4-(trifluoromethyl)phenyl]-4-[[3-(trifluoromethyl)phenyl]methyl]pyrimidine]
5: Plant response rating, Johnsongrass ([13]; PREEMERGENCE, Rate 32 g/ha)
50: Plant response rating, Wild poinsettia ([3]; Rate 140 g/ha) | Plant response rating, Itchgrass ([16]; PREEMERGENCE, Rate 125 g/ha) | Plant response rating, Purple nutsedge ([20]; PREEMERGENCE, Rate 250 g/ha)
80: Plant response rating, Spanishneedles ([7]; PREEMERGENCE, Rate 64 g/ha) | Plant response rating, P. morninglory ([14]; POSTEMERGENCE, Rate 250 g/ha) | Plant response rating, P. morninglory ([14]; PREEMERGENCE, Rate 64 g/ha)
85: Plant response rating, Arrowleaf sida ([5]; Rate 35 g/ha) | Plant response rating, Large crabgrass [9] | Plant response rating, Itchgrass ([16]; POSTEMERGENCE, Rate 250 g/ha)
95: Plant response rating, E. blacknightsh ([4]; Rate 140 g/ha) | Plant response rating, Arrowleaf sida ([5]; Rate 70 g/ha) | Plant response rating, Ladysthumb ([6]; Rate 140 g/ha) | Plant response rating, Sandbur ([12]; PREEMERGENCE, Rate 125 g/ha) | Plant response rating, Itchgrass ([16]; PREEMERGENCE, Rate 250 g/ha)
0: Plant response rating, Wild poinsettia ([3]; Rate 35 g/ha) | Plant response rating, Purple nutsedge ([20]; POSTEMERGENCE, Rate 250 g/ha) | Plant response rating, Purple nutsedge ([20]; PREEMERGENCE, Rate 32 g/ha) | Plant response rating, Purple nutsedge ([20]; PREEMERGENCE, Rate 64 g/ha) | Plant response rating, Purple nutsedge ([20]; PREEMERGENCE, Rate 125 g/ha)
15: Plant response rating, I. morningglory ([2]; Rate 35 g/ha) | Plant response rating, I. morningglory ([2]; Rate 70 g/ha)
98: Plant response rating, Surinam grass ([8]; PREEMERGENCE, Rate 125 g/ha) | Plant response rating, Com. groundsel ([15]; PREEMERGENCE, Rate 32 g/ha)
20: Plant response rating, I. morningglory ([2]; Rate 140 g/ha) | Plant response rating, Sandbur ([12]; PREEMERGENCE, Rate 32 g/ha) | Plant response rating, Itchgrass ([16]; PREEMERGENCE, Rate 32 g/ha) | Plant response rating, Itchgrass ([16]; PREEMERGENCE, Rate 64 g/ha) | Plant response rating, Velvetleaf ([19]; Rate 35 g/ha)
90: Plant response rating, E. blacknightsh ([4]; Rate 35 g/ha) | Plant response rating, E. blacknightsh ([4]; Rate 70 g/ha) | Plant response rating, Ladysthumb ([6]; Rate 70 g/ha) | Plant response rating, Spanishneedles ([7]; PREEMERGENCE, Rate 125 g/ha) | Plant response rating, Com. ragweed ([10]; PREEMERGENCE, Rate 32 g/ha) | Plant response rating, Johnsongrass ([13]; POSTEMERGENCE, Rate 250 g/ha) | Plant response rating, Johnsongrass ([13]; PREEMERGENCE, Rate 125 g/ha) | Plant response rating, Alexandergrass ([17]; POSTEMERGENCE, Rate 250 g/ha) | Plant response rating, Alexandergrass ([17]; PREEMERGENCE, Rate 125 g/ha)
100: Plant response rating, Large crabgrass ([1]; Rate 35 g/ha) | Plant response rating, Large crabgrass ([1]; Rate 70 g/ha) | Plant response rating, Large crabgrass ([1]; Rate 140 g/ha) | Plant response rating, Arrowleaf sida ([5]; Rate 140 g/ha) | Plant response rating, Lambsquarters ([18]; Rate 35 g/ha) | Plant response rating, Lambsquarters ([18]; Rate 70 g/ha) | Plant response rating, Lambsquarters ([18]; Rate 140 g/ha) | Plant response rating, Velvetleaf ([19]; Rate 140 g/ha)
25: Plant response rating, Ladysthumb ([6]; Rate 35 g/ha)
30: Plant response rating, Surinam grass ([8]; POSTEMERGENCE, Rate 250 g/ha) | Plant response rating, Bermudagrass [11]
35: Plant response rating, Surinam grass ([8]; PREEMERGENCE, Rate 64 g/ha)
10: Plant response rating, Wild poinsettia ([3]; Rate 70 g/ha) | Plant response rating, Spanishneedles ([7]; POSTEMERGENCE, Rate 250 g/ha) | Plant response rating, Sandbur ([12]; POSTEMERGENCE, Rate 250 g/ha) | Plant response rating, Alexandergrass ([17]; PREEMERGENCE, Rate 32 g/ha)
70: Plant response rating, Com. ragweed ([10]; POSTEMERGENCE, Rate 250 g/ha) | Plant response rating, P. morninglory ([14]; PREEMERGENCE, Rate 32 g/ha)
65: Plant response rating, Surinam grass ([8]; PREEMERGENCE, Rate 32 g/ha) | Plant response rating, Sandbur ([12]; PREEMERGENCE, Rate 64 g/ha)
40: Plant response rating, Spanishneedles ([7]; PREEMERGENCE, Rate 32 g/ha) | Plant response rating, Johnsongrass ([13]; PREEMERGENCE, Rate 64 g/ha)
75: Plant response rating, Com. groundsel ([15]; POSTEMERGENCE, Rate 250 g/ha) | Plant response rating, Alexandergrass ([17]; PREEMERGENCE, Rate 64 g/ha) | Plant response rating, Velvetleaf ([19]; Rate 70 g/ha)
